Reference: patent publication US20230063321A1, “Methods for Treating Inflammatory Bowel Diseases with alpha4beta7 Integrin Antagonists” (Protagonist Therapeutics, Inc., priority 2020, published 2023)
Values joined by “and” are separate entries in the source; they are usually repeats but may differ in a detail not shown here. Equal entries are not always repeated. Numbered stars: 1 amine (or outer) side, 2 acyl side, 3 side chain; on linkers, the order of the positions; unused ones are H or OH. Bridge positions count the residues as written; N and C are the ends. Square brackets hold non-standard residues; d marks the D form. Peptide text beside a SMILES is read from it. I, II: the chains in the order shown. ξ: configuration not given here. Phe(4-tBu) = CC(C)(C)c1ccc(C[C@H](N)C(=O)O)cc1; Diglycolyl = O=C(COCC(=O)[*:2])[*:1]; NMeR = CN[C@@H](CCCNC(=N)N)C(=O)O; β3hE = N[C@@H](CCC(=O)O)CC(=O)O; Thr(3ξ) = CC(O)[C@H](N)C(=O)O; X1 = O=C(c1ccccc1C[*:2])[*:1]; Pen = CC(C)(S)[C@H](N)C(=O)O

Experiments:
[1] = Safety and tolerability in healthy volunteers; conditions: for tolerability: single and multiple oral doses
α4β7 integrin = biological target: T1, α4β7 integrin (Homo sapiens, UniProt P13612+P26010); experiment: MAdCAM1-mediated cytokine production by CD4+ T-cells (MSD/luminex multiplex); format: cell-based; conditions: IFNγ, IL-5, IL-6, IL-10, IL-13, GM-CSF, TNFα; three donors
T1 construct: endogenous in cells; host or cells: primary human CD4+ T cells enriched from PBMCs of healthy donors
Experimental: PBMCs were purified from three healthy human donors (Donors 7, 10, and 11), and enrichment of CD4+ T cells was performed.

[2] = Study 1 pharmacokinetics in healthy male volunteers (liquid solution); conditions: for dose excreted at 24 h: 24-hour fecal recovery, intact, multiple dose; for Tmax: Tmax (h)
Experimental: Dose escalation proceeded from 100 mg, 300 mg, 1000 mg, 1400 mg. Subjects in the 300 mg dose cohort received treatment in the fasted state on one occasion and following a high fat meal on a second occasion in a crossover fashion. The high fat meal consisted of two eggs fried in butter, two strips of bacon, two slices of toast with butter, four ounces of hash brown potatoes and 240 ml of whole milk. During Part 1, subjects refrained from food and drink except water for 10 hours before and for four hours after dosing with the exception of subjects in the 300 mg dose cohort during the fed treatment.
Part 2 was a randomized, placebo-controlled, double-blind multiple ascending dose study in 50 male subjects divided equally into 5 cohorts. […] Doses evaluated in Part 2 included 100 mg, 300 mg and 1000 mg. During Part 2, two cohorts of subjects (100 mg and 300 mg) received food approximately 30 minutes prior to each dose and another two cohorts of subjects (300 mg and 100 mg) refrained from food for 10 hours before and for 1 hour after dosing.
Study 1: The single and multiple ascending dose phase of the study consisted of sequential dose escalations in 10 subject per dose cohort. […] Dose solutions were formulated in 50 mM phosphate buffer pH 7.4 and were prepared weekly by a qualified pharmacist.
Blood samples for pharmacokinetics were collected predose and for 48 hours postdose following single doses. In the multiple ascending dose phase, blood samples were obtained on Days 1-3 and 14-16; on Days 8 samples were obtained predose, 4, and 12 hours. On Day 10 of the MAD, subjects were required to collect all urine for the 0-6, 6-12, 12-18, and 18-24 hour intervals postdose and on Day 11 subjects were required to collect fecal samples.
The drug and internal standard were extracted from the matrix by a protein precipitation procedure. The limit of quantitation was 0.2 ng/mL, 20 ng/mL, and 100 ng/mL in plasma, urine, and feces, respectively. […] Coefficient of determinations for the calibration curves were at least 0.99 for all matrices. The interassay accuracy (% bias) ranged from −2.2% to 1.0% for plasma, −3.8% to 9.0% for urine and −5.0 to 5.2% for feces. Interassay precision (% CV) ranged from 3.7% to 7.7% for plasma, 2.8% to 7.0% for urine, and 1.2% to 5.2% for feces.
Pharmacokinetic parameters were estimated by noncompartmental methods using Phoenix WinNonlin (Certara, Princeton N.J.). Peak plasma concentration (Cmax) and time to peak plasma concentration (Tmax) were observed values. The elimination rate was estimated from the slope of the least-squares regression on the terminal log-linear phase. Area under the plasma concentration-time curve from time zero to the last quantifiable concentration (AUCt) was estimated by a linear trapezoidal method and was extrapolated to infinity (AUC∞) by dividing the last quantifiable concentration b the elimination rate.

T1 sequence (P13612 34-1032): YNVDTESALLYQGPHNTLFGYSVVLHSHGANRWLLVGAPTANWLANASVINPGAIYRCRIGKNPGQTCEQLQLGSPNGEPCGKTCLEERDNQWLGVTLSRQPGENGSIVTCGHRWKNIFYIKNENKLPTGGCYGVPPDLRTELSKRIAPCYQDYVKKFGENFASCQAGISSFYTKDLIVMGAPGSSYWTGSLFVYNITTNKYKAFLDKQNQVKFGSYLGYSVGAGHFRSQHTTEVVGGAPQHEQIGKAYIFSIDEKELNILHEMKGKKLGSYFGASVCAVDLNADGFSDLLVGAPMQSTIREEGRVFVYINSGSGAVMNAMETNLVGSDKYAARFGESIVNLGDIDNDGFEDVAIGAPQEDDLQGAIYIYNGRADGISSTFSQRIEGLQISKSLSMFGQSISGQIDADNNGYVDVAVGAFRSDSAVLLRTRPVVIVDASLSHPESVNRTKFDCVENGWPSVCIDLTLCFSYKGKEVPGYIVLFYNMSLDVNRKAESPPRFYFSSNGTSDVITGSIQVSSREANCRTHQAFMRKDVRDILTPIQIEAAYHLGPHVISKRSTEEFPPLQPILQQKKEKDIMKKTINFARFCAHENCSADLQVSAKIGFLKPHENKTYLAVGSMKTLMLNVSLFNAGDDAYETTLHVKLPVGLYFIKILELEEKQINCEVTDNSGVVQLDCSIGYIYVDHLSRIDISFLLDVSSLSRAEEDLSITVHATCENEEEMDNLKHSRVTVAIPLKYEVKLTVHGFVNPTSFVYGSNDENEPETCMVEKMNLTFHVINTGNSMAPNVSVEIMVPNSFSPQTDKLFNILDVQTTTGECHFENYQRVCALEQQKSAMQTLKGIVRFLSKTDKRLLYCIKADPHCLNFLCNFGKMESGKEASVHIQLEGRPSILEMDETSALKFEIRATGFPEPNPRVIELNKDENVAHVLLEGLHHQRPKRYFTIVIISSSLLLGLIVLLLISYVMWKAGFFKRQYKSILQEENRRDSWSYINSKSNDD
T1 sequence (P26010 20-798): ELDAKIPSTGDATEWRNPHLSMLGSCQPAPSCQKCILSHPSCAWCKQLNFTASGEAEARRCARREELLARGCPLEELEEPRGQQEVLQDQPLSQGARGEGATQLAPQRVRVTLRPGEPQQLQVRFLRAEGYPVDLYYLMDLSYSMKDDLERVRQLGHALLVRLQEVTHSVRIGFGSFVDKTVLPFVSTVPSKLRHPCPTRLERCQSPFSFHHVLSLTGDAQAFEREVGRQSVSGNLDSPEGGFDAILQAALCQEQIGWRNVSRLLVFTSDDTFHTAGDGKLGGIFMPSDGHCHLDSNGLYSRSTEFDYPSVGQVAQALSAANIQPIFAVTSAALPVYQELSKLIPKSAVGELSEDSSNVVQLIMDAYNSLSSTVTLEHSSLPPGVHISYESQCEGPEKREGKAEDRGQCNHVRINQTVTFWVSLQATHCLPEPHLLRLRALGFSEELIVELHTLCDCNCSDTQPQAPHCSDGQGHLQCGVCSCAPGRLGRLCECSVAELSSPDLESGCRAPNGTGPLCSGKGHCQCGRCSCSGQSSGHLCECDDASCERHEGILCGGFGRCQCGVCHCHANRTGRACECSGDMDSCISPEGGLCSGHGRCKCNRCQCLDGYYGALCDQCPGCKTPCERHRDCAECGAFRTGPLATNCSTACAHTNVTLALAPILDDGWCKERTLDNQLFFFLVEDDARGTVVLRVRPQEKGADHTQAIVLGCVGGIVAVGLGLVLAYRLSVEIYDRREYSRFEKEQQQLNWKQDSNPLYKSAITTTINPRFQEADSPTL

In the case of `CC(C)C[C@@H]1NC(=O)[C@H](C(C)O)NC(=O)[C@H](CC(=O)O)NC(=O)[C@H](CO)NC(=O)[C@H](CCCNC(=N)N)N(C)C(=O)c2ccccc2CSC(C)(C)[C@@H](C(=O)N[C@@H](Cc2ccc(C(C)(C)C)cc2)C(=O)N[C@@H](CCC(=O)O)CC(=O)N[C@H](CCCCNC(=O)COCC(=O)NCCCC[C@@H](NC(=O)C[C@H](CCC(=O)O)NC(=O)[C@H](Cc2ccc(C(C)(C)C)cc2)NC(=O)[C@H]2NC(=O)[C@H](CC(C)C)NC(=O)[C@H](C(C)O)NC(=O)[C@H](CC(=O)O)NC(=O)[C@H](CO)NC(=O)[C@H](CCCNC(=N)N)N(C)C(=O)c3ccccc3CSC2(C)C)C(=O)O)C(=O)O)NC1=O` (stereo partly drawn) [Compound A, ((2-Benzyl)-(N-Me-R)-Ser-Asp-Thr-Leu-Pen-(Phe(4-tBlu))-(β-homo-Glu)-(D-Lys)-OH)2 (SEQ ID NO: 5) and linker-DIG diglycolic acid] (I: [NMeR]SD[Thr(3ξ)]L[Pen][Phe(4-tBu)][β3hE][dK]-OH / II: [NMeR]SD[Thr(3ξ)]L[Pen][Phe(4-tBu)][β3hE][dK]-OH; linker I:9-II:9 via Diglycolyl; linker I:N-I:6, II:N-II:6 via X1), the “maximally tolerated dose, multiple dose (highest dose tested)” value ([1]; healthy volunteers) is reported as 1000 mg, the “maximally tolerated dose, single dose (highest dose tested)” value ([1]; healthy volunteers) is reported as 1400 mg and the “subjects reporting AEs” value ([1]; multiple doses) is reported as “Thirty”. For the same molecule, the “total AEs” value ([1]; multiple doses) was 68 AEs, the QTc prolongation ([1]; single and multiple doses) was “no evidence of QTc prolongation was observed” and the tolerability [1] was “generally well tolerated”. The tolerability ([1]; listed as COMPOUND A) was “safe and well tolerated”, the “TEAEs in subjects who received drug” value ([1]; single ascending dose phase) was 21 events and the “subjects with TEAEs who received drug” value ([1]; single ascending dose phase) was 12 subjects. For the same molecule, the dose-limiting toxicities ([1]; single doses up to 1400 mg, multiple up to 1000 mg) was “no dose-limiting toxicities observed”, the “inhibition of MAdCAM1-mediated cytokine production” value (α4β7 integrin) was “Concentration-dependent and full inhibition” and the “accumulation with once daily dosing (Cmax and AUCt, Day 14 vs Day 1)” value ([2]; 300 mg and 1000 mg) was at most 30%. For the same molecule, the “Fluctuation (%)” value ([2]; 450 mg Twice Daily, Day 5, Mean ± SD) was 143% and 143 ± 42%, the “Fluctuation (%)” value ([2]; 450 mg Twice Daily, Day 5, Mean ± SD, listed as COMPOUND A) was 143% and the “Fluctuation (%)” value ([2]; 900 mg Once Daily, Day 5, Mean ± SD) was 245 ± 81%. The “Fluctuation (%)” value ([2]; 900 mg Once Daily, Day 5, Mean ± SD, listed as COMPOUND A) was 245%, the half-life ([2]; human, plasma, oral, 100 mg, t½ (h), 100 mg Fed once daily, Day 1, N = 1) was 231 min and the half-life ([2]; human, plasma, oral, 100 mg, t½ (h), 100 mg Fed once daily, Day 14, N = 1) was 444 min. For the same molecule, the half-life ([2]; human, plasma, oral, 300 mg, t½ (h), 300 mg Fed once daily, Day 1, N = 1) was 478 min, the dose excreted at 24 h ([2]; male, human, faeces, oral, 300 mg, 300 mg fasted) was 0.73% and the dose excreted at 24 h ([2]; male, human, faeces, oral, 300 mg, 300 mg fed) was 1.78%. It also gave a dose excreted ([2]; male, human, faeces, oral, 300 mg, fecal recovery) of 1 to 2%, a dose excreted at 24 h ([2]; male, human, faeces, oral, 1000 mg) of 16.8% and a Tmax ([2]; male, human, plasma, oral, 100 mg, 100 mg Fed once daily, Day 1, Median (Min, Max)) of 4 h. For the same molecule, the Tmax ([2]; male, human, plasma, oral, 100 mg, 100 mg Fed once daily, Day 14, Median (Min, Max)) was 4 h, the Tmax ([2]; male, human, plasma, oral, 100 mg, single dose 100 mg, Median (Min, Max)) was 2 h and the Cmax ([2]; male, human, plasma, oral, 100 mg, mean peak plasma concentration (Cmax), single dose 100 mg) was 2.11 ng/mL. It also gave a half-life ([2]; male, human, plasma, oral, 100 mg, t½ (h), single dose 100 mg, Mean ± SD, N = 4) of 183 ± 42.6 min, a Tmax ([2]; male, human, plasma, oral, 300 mg, 300 mg Fasted once daily, Day 1, Median (Min, Max)) of 2 h and a Tmax ([2]; male, human, plasma, oral, 300 mg, 300 mg Fasted once daily, Day 14, Median (Min, Max)) of 2 h. It also gave a Tmax ([2]; male, human, plasma, oral, 300 mg, 300 mg Fed once daily, Day 1, Median (Min, Max)) of 4 h, a Tmax ([2]; male, human, plasma, oral, 300 mg, 300 mg Fed once daily, Day 14, Median (Min, Max)) of 4 h and a Tmax ([2]; male, human, plasma, oral, 300 mg, single dose 300 mg Fasted, Median (Min, Max)) of 3 h. It also gave a Tmax ([2]; male, human, plasma, oral, 300 mg, single dose 300 mg High Fat Meal, Median (Min, Max)) of 4 h, a half-life ([2]; male, human, plasma, oral, 300 mg, mean elimination half-life, single doses 100 and 300 mg) of 186 to 240 min and a half-life ([2]; male, human, plasma, oral, 300 mg, t½ (h), 300 mg Fasted once daily, Day 1, Mean ± SD) of 310 ± 115 min. The half-life ([2]; male, human, plasma, oral, 300 mg, t½ (h), 300 mg Fasted once daily, Day 14, Mean ± SD, N = 7) was 439 ± 232 min, the half-life ([2]; male, human, plasma, oral, 300 mg, t½ (h), single dose 300 mg Fasted, Mean ± SD, N = 4) was 241 ± 82.2 min and the Tmax ([2]; male, human, plasma, oral, 450 mg, 450 mg Twice Daily, Day 1, Median (min, max)) was 2 h. For the same molecule, the Tmax ([2]; male, human, plasma, oral, 450 mg, 450 mg Twice Daily, Day 5, Median (min, max)) was 2 h, the Tmax ([2]; male, human, plasma, oral, 900 mg, 900 mg Once Daily, Day 1, Median (min, max)) was 2 h and the Tmax ([2]; male, human, plasma, oral, 900 mg, 900 mg Once Daily, Day 5, Median (min, max)) was 2 h. For the same molecule, the half-life ([2]; male, human, plasma, oral, 900 mg, t½ (h), 900 mg Once Daily, Day 1, Mean ± SD) was 316 ± 144 min, the half-life ([2]; male, human, plasma, oral, 900 mg, t½ (h), 900 mg Once Daily, Day 5, Mean ± SD) was 374 ± 178 min and the Tmax ([2]; male, human, plasma, oral, 1000 mg, 1000 mg Fasted once daily, Day 1, Median (Min, Max)) was 2 h.
